From US12533348B2, “Ferroportin-inhibitors for the use in the treatment of transfusion-dependent beta-thalassemia (TDT)” (Vifor (International) AG, priority 2019, dated 2026)
Where “and” joins values, the source holds several entries; their conditions need not be identical. Identical values can stand only once.

Experiments:
[1] = Combination study DFX/Fpn127: clinical observations, mortality and body weight; assay type: in vivo, mouse; conditions: for BW: th3/+ mice, mean
Method: (§1) One day after switching to lid a blood sample was taken by tail vein incision to determine the baseline Hb levels. Hb was measured using a HaemoCue® device. Hb was also measured on days 8, 15, and 22 in the morning before dosing. The animals were dosed p.o. D with 30 mg/kg DFX in 30% Kolliphor, 120 mg/kg Fpn127 in 0.5% C, or both for a total of 17 doses during the 23 days of study. 30% Kolliphor and 0.5% C were dosed as vehicles. The dose of DFX was administered at the beginning of the dark cycle (active phase) at 9:00 followed by 3 h of access to lid. Then, mice were dosed with Fpn127 (or 0.5% C) and were given access to sd for a 6 h period before switched back to lid. On the dosing was paused and mi had access to lid ad libitum.
Animals and their cages were checked daily by the experimenter during the study on working days. During the experimental phase, animals were weighted minimum once per week and scored according to their clinical symptoms: BW, general behavior and activity, appearance of hair coat, eyes, and nose. Clinical observations were recorded when present on separate score sheets.
BW was recorded once before the start of the experimental phase on day −1. During the experimental phase, individual BW were recorded 1 to 2 times per week to calculate the dosing volume and to monitor weight loss.

[2] = tested on: Hbb^th3/+ mouse model of β-thalassemia intermedia; assay: Combination study: hemoglobin (HemoCue photometer); assay type: in vivo; conditions: for Hb concentration: th3/+ mice, Fpn127 120 mg/kg QD p.o., mean
Method: as §1
Hb was measured on days 1, 8, 15 and 22. Individual Hb values were determined at the starting day of the experiment (day 1) and weekly thereafter during the experimental phase in the morning before the first daily dose. A blood sample was taken by tail vein incision and Hb was measured using a HemoCue® DM201 Hb photometer.

[3] = tested on: Hbb^th3/+ mouse model of β-thalassemia intermedia; assay: Combination study: complete blood counts (ProCyte Dx); assay type: in vivo
Method: Complete blood counts were performed on fresh EDTA-blood on an automated blood cell analyzer (ProCyte Dx®, IDEXX Laboratories) in-house.

[4] = tested on: Hbb^th3/+ mouse model of β-thalassemia intermedia; assay: Combination study: serum EPO (DuoSet ELISA); assay type: in vivo
Method: (§2) On day 23 (study end) 1 hour after dosing blood was collected by retro-orbital bleeding from pre-terminally anesthetized mice into BD Microtainer Tubes (Cat. 365967 and 365975) for determination of serum iron, transferrin, erythropoietin and compound exposure. Anesthetized animals were subsequently euthanized by cervical dislocation.
(§3) [formula] Serum EPO was measured using a mouse-specific DuoSet ELISA according to the manufacturer's instructions (R&D Systems, Cat. DY959). Plasma concentrations of Fpn127 and DFX were measured at GVK Biosciences, Hyderabad, IN. Flow Cytometric Analysis of Intracellular ROS, Mitochondria, and PS Exposure

[5] = Combination study: plasma concentrations of Fpn127 and DFX (LC-MS/MS); assay type: in vivo, mouse
Method: as §2, §3
Plasma was collected 1 hour after dosing of DFX on day 23 for determination of compound concentration by LC-MS/MS. Plasma exposure of DFX was similar in animals dosed with DFX alone or in combination with Fpn127 (FIG. 11, Table 12). […] As expected, plasma levels of Fpn127 were low as plasma was sampled approximately 20 h after the last dose of Fpn127.

[6] = tested on: Hbb^th3/+ mouse model of β-thalassemia intermedia; assay: Combination study: flow cytometric analysis of intracellular ROS, mitochondria and PS exposure in mature RBC; assay type: in vivo
Method: In peripheral blood taken on day 22 by tail vein incision, ROS were detected with the indicator chloromethyl-2′,7′-dichlorodihydrofluorescein diacetate (CM-H2DCFDA, Invitrogen), the presence of mitochondria was detected with MitoTracker Deep Red FM (Invitrogen), and PS exposure was detected using the Annexin V Apoptosis Detection Kit (Invitrogen) in mature RBC labelled with Ter119 and CD71 antibodies.
For all analysis, cells were analyzed on a CANTOII cytometer (BD Biosciences) and data were analyzed using FlowJo® software (FlowJo, LLC, version 10.2).

[7] = tested on: Hbb^th3/+ mouse model of β-thalassemia intermedia; assay: Combination study: organ weights and tissue iron (ICP-OES) in liver, spleen, kidney; conditions: for relative spleen weight: percent of body weight; for relative spleen weight / kidney Fe conc. / liver Fe conc. / spleen Fe conc.: th3/+ mice, DFX 30 mg/kg QD, Fpn127 120 mg/kg QD p.o., end of study (day 23), mean
Method: The aim of this study was to test whether the concurrent use of the iron chelator DFX administered once daily (QD) alone at 30 mg/kg or in combination with Fpn127 administered QD at 120 mg/kg for 3 weeks is causing any therapeutic interactions in a mouse model of β-thalassemia intermedia (Hbb^th3/+; B6; 129P—b1tm1Unc-b2tm1Unc/J, Jackson Laboratories, Stock Number: 002683).
Animals were euthanized 1 h after the last dose of DFX on study day 23 (dosing day 17).
On the final study day (day 23), spleen, liver, and kidneys were collected and snap frozen in liquid nitrogen for further analysis, as outlined below. Wet weight of spleen, liver, and kidneys were recorded.
Content of total Fe was determined in pieces of spleens, livers, and kidneys by ICP-OES in the Analytical Development group of Vifor (International) Ltd., St. Gallen.
Individual wet weights of organs were recorded. Individual values of total Fe were measured in livers, spleens, and kidneys. Individual values of total Fe content and concentration were calculated. Mean±SD of total Fe concentration and content in livers, spleens, and kidneys was calculated for each group.

[8] = th3/+ mice, DFX 30 mg/kg QD, Fpn127 120 mg/kg QD p.o., whole blood day 23, all animals, mean
[9] = th3/+ mice, all animals, mature RBCs in whole blood at end of study (pre-terminally d22)

For `O=C(NCc1ncccc1F)c1coc(CCNCCc2nc3ccccc3[nH]2)n1` [Fpn127], the “tolerability / clinical symptoms” value ([1]; Hbb^th3/+ mice, DFX 30 mg/kg QD, Fpn127 120 mg/kg QD p.o., 17 doses in 23 days) was “generally well tolerated”, the “effect on BW vs vehicle-treated Hbb^th3/+ mice or WT mice” value ([1]; males and females, once daily for the duration of the study (d22)) was “no effect on BW” and the BW ([1]; DFX 30 mg/kg QD, Fpn127 120 mg/kg QD p.o., day 1, all animals) was 22.2 g. For the same compound, the BW ([1]; DFX 30 mg/kg QD, Fpn127 120 mg/kg QD p.o., day 1, females) was 19.4 ± 1.0 g and 19.4 g, the BW ([1]; DFX 30 mg/kg QD, Fpn127 120 mg/kg QD p.o., day 1, males) was 25.1 ± 1.0 g and 25.1 g and the BW ([1]; DFX 30 mg/kg QD, Fpn127 120 mg/kg QD p.o., day 3, all animals) was 23.6 g. The BW ([1]; DFX 30 mg/kg QD, Fpn127 120 mg/kg QD p.o., day 3, females) was 20.3 g, the BW ([1]; DFX 30 mg/kg QD, Fpn127 120 mg/kg QD p.o., day 3, males) was 26.9 g and the BW ([1]; DFX 30 mg/kg QD, Fpn127 120 mg/kg QD p.o., day 7, all animals) was 23.1 g. The BW ([1]; DFX 30 mg/kg QD, Fpn127 120 mg/kg QD p.o., day 7, females) was 19.8 g, the BW ([1]; DFX 30 mg/kg QD, Fpn127 120 mg/kg QD p.o., day 7, males) was 26.5 g and the BW ([1]; DFX 30 mg/kg QD, Fpn127 120 mg/kg QD p.o., day 10, all animals) was 23.4 g. It also gave a BW ([1]; DFX 30 mg/kg QD, Fpn127 120 mg/kg QD p.o., day 10, females) of 20.3 g, a BW ([1]; DFX 30 mg/kg QD, Fpn127 120 mg/kg QD p.o., day 10, males) of 26.5 g and a BW ([1]; DFX 30 mg/kg QD, Fpn127 120 mg/kg QD p.o., day 14, all animals) of 23.3 g. For the same compound, the BW ([1]; DFX 30 mg/kg QD, Fpn127 120 mg/kg QD p.o., day 14, females) was 20.2 g, the BW ([1]; DFX 30 mg/kg QD, Fpn127 120 mg/kg QD p.o., day 14, males) was 26.3 g and the BW ([1]; DFX 30 mg/kg QD, Fpn127 120 mg/kg QD p.o., day 17, all animals) was 23.2 g. For the same compound, the BW ([1]; DFX 30 mg/kg QD, Fpn127 120 mg/kg QD p.o., day 17, females) was 19.7 g, the BW ([1]; DFX 30 mg/kg QD, Fpn127 120 mg/kg QD p.o., day 17, males) was 26.6 g and the BW ([1]; DFX 30 mg/kg QD, Fpn127 120 mg/kg QD p.o., day 22, all animals) was 23.3 g. The BW ([1]; DFX 30 mg/kg QD, Fpn127 120 mg/kg QD p.o., day 22, females) was 19.8 g, the BW ([1]; DFX 30 mg/kg QD, Fpn127 120 mg/kg QD p.o., day 22, males) was 26.7 g and the “change of Hb levels compared to vehicle-treated mice” value ([2]; Hbb^th3/+ mice, by the study end, Fpn127 120 mg/kg QD, DFX 30 mg/kg QD) was 13 g/L. The “Hb levels during the study duration” value ([2]; Hbbth3/+ animals (FIG. 6)) was “increased with time”, the Hb concentration ([2]; DFX 30 mg/kg QD, day 1 (before dosing), all animals) was 85 g/L and the Hb concentration ([2]; DFX 30 mg/kg QD, day 1 (before dosing), females) was 85 ± 4 g/L and 85 g/L. The Hb concentration ([2]; DFX 30 mg/kg QD, day 1 (before dosing), males) was 85 ± 6 g/L and 85 g/L, the Hb concentration ([2]; DFX 30 mg/kg QD, day 8, all animals) was 92 g/L and the Hb concentration ([2]; DFX 30 mg/kg QD, day 8, females) was 93 g/L. It also gave a Hb concentration ([2]; DFX 30 mg/kg QD, day 8, males) of 90 g/L, a Hb concentration ([2]; DFX 30 mg/kg QD, day 15, all animals) of 96 g/L and a Hb concentration ([2]; DFX 30 mg/kg QD, day 15, females) of 99 g/L. For the same compound, the Hb concentration ([2]; DFX 30 mg/kg QD, day 15, males) was 93 g/L, the Hb concentration ([2]; DFX 30 mg/kg QD, day 22, all animals) was 98 g/L and the Hb concentration ([2]; DFX 30 mg/kg QD, day 22, females) was 101 g/L. The Hb concentration ([2]; DFX 30 mg/kg QD, day 22, males) was 95 g/L, the “leukocyte, neutrophil and lymphocyte counts” value ([3]; Hbb^th3/+ mice, day 23 (FIG. 8), for DFX alone: total leukocyte and lymphocyte counts) was “reduced to levels similar to WT” and the “RBC indices (RBC counts, hematocrit, RDW, reticulocyte counts)” value ([3]; Hbbth3/+ mice, day 23 (FIG. 7)) was “significantly improved”. For the same compound, the HCT [3, 8] was 31.2%, the Leukocytes [3, 8] was 5.7 10E3/μL and the Lymphocytes [3, 8] was 5.0 10E3/μL. The MCH [3, 8] was 9.9 pg, the MCHC [3, 8] was 27.4 g/dL and the MCV [3, 8] was 36.4 fL. For the same compound, the Neutrophils [3, 8] was 0.3 10E3/μL, the RBC [3, 8] was 9.9 10E6/μL and the RDW [3, 8] was 39.1%. For the same compound, the RET [3, 8] was 1332 10E3/μL, the Ret-He [3, 8] was 11.8 pg and the “effect on EPO levels” value ([4]; Hbbth3/+ animals, day 23 (FIG. 10)) was “reduced EPO levels”. For the same compound, the EPO ([4]; serum, th3/+ mice, day 23, DFX 30 mg/kg QD, Fpn127 120 mg/kg QD p.o., all animals, mean) was 3938 ± 1167 pg/mL and 3938 pg/mL, the “plasma levels of Fpn127” value ([5]; approximately 20 h after the last dose of Fpn127) was “low” and the “plasma exposure of Fpn127, in presence vs absence of DFX” value ([5]; day 23 (FIG. 11)) was “comparable”. The “Plasma exposure of Fpn127 at the end of the study (mean)” value ([5]; th3/+ mice, all animals, plasma collected on day 23, approximately 20 h after the last dose of Fpn127, LC-MS/MS) was 68 ng/mL, the “proportion of PS-positive RBC (annexin V staining)” value ([6]; Hbbth3/+ mice (FIG. 12)) was “significantly decreased” and the “RBC function/quality (oxidative stress, apoptosis and maturation)” value ([6]; Hbbth3/+ mice, summary) was “improved RBC quality”. The “proportion of ROS-producing RBC” value ([6]; compared to Hbbth3/+ mice treated with vehicle or DFX alone, CM-H2DCFDA (FIG. 12)) was “significantly decreased”, the RBC containing mitochondria ([6]; compared to vehicle-treated and DFX-treated Hbbth3/+ mice (FIG. 12)) was “less RBC containing mitochondria” and the “% Annex in V-positive RBCs (mean)” value [6, 9] was 0.29%. For the same compound, the “% Mito Tracker-positive RBCs (mean)” value [6, 9] was 0.19%, the “% ROS-positive RBCs (mean)” value [6, 9] was 32.82% and the “effect on total liver iron concentration vs vehicle-treated th3/+ mice” value ([7]; end of study (FIG. 3)) was “no effect on liver iron concentration”. The “effect on total spleen iron concentration vs vehicle-treated th3/+ mice” value ([7]; end of study (FIG. 4)) was “significantly increased”, the “effect on total kidney iron concentration vs vehicle-treated Hbbth3/+ mice” value ([7]; end of study (FIG. 5)) was “significantly reduced” and the “effect on relative spleen weight in th3/+ animals” value ([7]; end of study d23 (FIG. 4)) was “significantly reduced”. The relative spleen weight ([7]; all animals) was 0.99±0.18% and 0.99%, the relative spleen weight ([7]; females) was 1.12% and the relative spleen weight ([7]; males) was 0.86%. For the same compound, the “kidney Fe conc.” value ([7]; all animals) was 126.7 ± 23.6 µg/g and 126.7 µg/g, the “liver Fe conc.” value ([7]; all animals) was 332.2 ± 75.2 µg/g and 332.2 µg/g and the “spleen Fe conc.” value ([7]; all animals) was 2738.0 ± 300.8 µg/g and 2738.0 µg/g. For the same compound, the “kidney Fe conc.” value ([7]; females) was 138.9 µg/g, the “liver Fe conc.” value ([7]; females) was 371.8 µg/g and the “spleen Fe conc.” value ([7]; females) was 2713.0 µg/g. The “kidney Fe conc.” value ([7]; males) was 114.5 µg/g, the “liver Fe conc.” value ([7]; males) was 292.5 µg/g and the “spleen Fe conc.” value ([7]; males) was 2760.0 µg/g.
